Measurements: ChEMBL document CHEMBL1147869, “Computational approach to the basicity of a series of alpha1-adrenoceptor ligands in aqueous solution” (Bioorg Med Chem, 2007)

Assay: Dissociation constant, pKa of the compound
Type: physicochemical

Question: For `CNC[C@H](O)c1ccc(O)c(O)c1` [EPINEPHRINE], which pKa is on record?
Answer: 8.59

Question: With `c1cc(Nc2ccc(NC3=NCCN3)cc2)ccc1NC1=NCCN1` as the compound, how does the pKa read?
Answer: 9.9

Question: With `O=C(c1ccc(NC2=NCCN2)cc1)c1ccc(NC2=NCCN2)cc1` as the compound, how does the pKa read?
Answer: 8.6

Question: For `N=C(N)Nc1ccc(Nc2ccc(NC(=N)N)cc2)cc1`, which pKa is on record?
Answer: 10.8

Question: Which pKa does the source give for `N=C(N)Nc1ccc(Cc2ccc(NC(=N)N)cc2)cc1` here?
Answer: 10.5

Question: With `COc1cc2nc(N3CCN(C(=O)C4COc5ccccc5O4)CC3)nc(N)c2cc1OC` (centres undefined) [DOXAZOSIN] as the compound, how does the pKa read?
Answer: 6.9

Question: Which pKa does the source give for `N=C(N)Nc1ccc(C(=O)c2ccc(NC(=N)N)cc2)cc1` here?
Answer: 9.4

Question: With `NC[C@H](O)c1ccc(O)c(O)c1` [NOREPINEPHRINE] as the compound, how does the pKa read?
Answer: 8.58

Question: With `c1cc(NC2=NCCN2)ccc1Cc1ccc(NC2=NCCN2)cc1` as the compound, how does the pKa read?
Answer: 9.8
